Measured values as given in PubChem BioAssay (NCI).
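Step 1: Grow cells in 96-well plates. Step 2: Expose to compound for 48 hours at 5 concentrations. Step 3: Interpolate endpoints linearly; if unreached, use highest concentration. The concentration for full growth arrest is given as TGI.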

Assays:
Assay in all cases: NCI anticancer screen, dose series, 48 h
[1] = system: SF-268 CNS
[2] = system: HCT-116 colon
[3] = system: M14 melanoma
[4] = system: MDA-MB-435
[5] = system: MDA-MB-231 breast
[6] = system: HCT-15 colon
[7] = system: ACHN renal
[8] = system: SK-OV-3 ovarian
[9] = system: HS 578T breast
[10] = system: SN12C renal
[11] = system: SNB-75 CNS
[12] = system: SK-MEL-2 melanoma
[13] = system: T-47D breast
[14] = system: PC-3 prostate
[15] = system: HCC-2998 colon
[16] = system: SNB-19 CNS
[17] = system: OVCAR-8 ovarian
[18] = system: UACC-62 melanoma
[19] = system: NCI-H460 lung
[20] = system: RXF 393 renal
[21] = system: BT-549 breast
[22] = system: NCI-H23 lung
[23] = system: IGROV1 ovarian
[24] = system: LOX IMVI melanoma
[25] = system: DU-145 prostate
[26] = system: NCI/ADR-RES ovarian
[27] = system: COLO 205 colon
[28] = system: EKVX NSCLC
[29] = system: OVCAR-4 ovarian
[30] = system: MDA-N
[31] = system: CAKI-1 renal
[32] = system: RPMI-8226 leukemia
[33] = system: MCF7 breast
[34] = system: UO-31 renal
[35] = system: K-562 leukemia
[36] = system: CCRF-CEM leukemia
[37] = system: A549 NSCLC
[38] = system: OVCAR-5 ovarian
[39] = system: MALME-3M melanoma
[40] = system: KM12 colon
[41] = system: UACC-257 melanoma
[42] = system: A498 renal
[43] = system: NCI-H226 lung
[44] = system: HOP-62 NSCLC
[45] = system: SR leukemia
[46] = system: SW-620 colon
[47] = system: HOP-92 NSCLC
[48] = system: OVCAR-3 ovarian
[49] = system: SF-295 CNS
[50] = system: U251 CNS
[51] = system: 786-0 renal
[52] = system: SK-MEL-28 melanoma
[53] = system: TK-10 renal
[54] = system: HT29 colon
[55] = system: HL-60(TB) leukemia
[56] = system: NCI-H522 lung
[57] = system: SK-MEL-5 melanoma
[58] = system: SF-539 CNS
[59] = system: MOLT-4 leukemia

Compound `Nc1nc(SCc2ccccc2Cl)cc(C(=O)O)n1` has a TGI [1] of over 100 µM, a TGI [2] of over 100 µM and a TGI [3] of over 100 µM. For the same compound, the TGI [4] was over 100 µM, the TGI [5] was over 100 µM and the TGI [6] was over 100 µM. It also gave a TGI [7] of over 100 µM, a TGI [8] of over 100 µM and a TGI [9] of over 100 µM. It also gave a TGI [10] of over 100 µM, a TGI [11] of over 100 µM and a TGI [12] of over 100 µM. For the same compound, the TGI [13] was over 100 µM, the TGI [14] was over 100 µM and the TGI [15] was over 100 µM. The TGI [16] was over 100 µM, the TGI [17] was over 100 µM and the TGI [18] was over 100 µM. It also gave a TGI [19] of over 100 µM, a TGI [20] of over 100 µM and a TGI [21] of over 100 µM. For the same compound, the TGI [22] was over 100 µM, the TGI [23] was over 100 µM and the TGI [24] was over 100 µM. It also gave a TGI [25] of over 100 µM, a TGI [26] of over 100 µM and a TGI [27] of over 100 µM. The TGI [28] was over 100 µM, the TGI [29] was over 100 µM and the TGI [30] was over 100 µM. It also gave a TGI [31] of over 100 µM, a TGI [32] of over 100 µM and a TGI [33] of over 100 µM. It also gave a TGI [34] of over 100 µM, a TGI [35] of over 100 µM and a TGI [36] of over 100 µM. The TGI [37] was over 100 µM, the TGI [38] was over 100 µM and the TGI [39] was over 100 µM. It also gave a TGI [40] of over 100 µM, a TGI [41] of over 100 µM and a TGI [42] of over 100 µM. The TGI [43] was over 100 µM, the TGI [44] was over 100 µM and the TGI [45] was over 100 µM. It also gave a TGI [46] of over 100 µM, a TGI [47] of over 100 µM and a TGI [48] of 89.2 µM. It also gave a TGI [49] of over 100 µM, a TGI [50] of over 100 µM and a TGI [51] of over 100 µM. For the same compound, the TGI [52] was over 100 µM, the TGI [53] was over 100 µM and the TGI [54] was over 100 µM. For the same compound, the TGI [55] was over 100 µM, the TGI [56] was over 100 µM and the TGI [57] was over 100 µM.
In the case of `CC(=O)NC(CSC1=C2NC(=O)\C=C/C=C/C=C\C(C)C(O)CC(=O)/C(C)=C\CC(O)/C=C/C(C)C(O)C(C)C=C(C)C(=O)c3c(O)c(C)cc(c3C1=O)C2=O)C(=O)O` (stereo not given), the TGI [2] is reported as over 100 µM, the TGI [3] is reported as over 100 µM and the TGI [4] is reported as over 100 µM. The TGI [5] was 82.7 µM, the TGI [6] was over 100 µM and the TGI [7] was over 100 µM. For the same compound, the TGI [8] was over 100 µM, the TGI [9] was over 100 µM and the TGI [10] was over 100 µM. For the same compound, the TGI [11] was over 100 µM, the TGI [12] was over 100 µM and the TGI [13] was over 100 µM. The TGI [58] was over 100 µM, the TGI [14] was over 100 µM and the TGI [16] was over 100 µM. It also gave a TGI [17] of over 100 µM, a TGI [18] of over 100 µM and a TGI [19] of over 100 µM. The TGI [59] was over 100 µM, the TGI [21] was over 100 µM and the TGI [22] was over 100 µM. For the same compound, the TGI [23] was over 100 µM, the TGI [24] was over 100 µM and the TGI [25] was over 100 µM. It also gave a TGI [26] of over 100 µM, a TGI [27] of 79.6 µM and a TGI [28] of over 100 µM. The TGI [29] was over 100 µM, the TGI [30] was over 100 µM and the TGI [31] was over 100 µM. It also gave a TGI [33] of over 100 µM, a TGI [34] of over 100 µM and a TGI [35] of over 100 µM. For the same compound, the TGI [36] was 78.9 µM, the TGI [37] was over 100 µM and the TGI [38] was over 100 µM. The TGI [39] was over 100 µM, the TGI [40] was over 100 µM and the TGI [41] was over 100 µM. For the same compound, the TGI [42] was over 100 µM, the TGI [43] was over 100 µM and the TGI [44] was over 100 µM. For the same compound, the TGI [45] was over 100 µM, the TGI [46] was over 100 µM and the TGI [47] was over 100 µM. The TGI [48] was over 100 µM, the TGI [49] was over 100 µM and the TGI [50] was over 100 µM. For the same compound, the TGI [51] was over 100 µM, the TGI [52] was over 100 µM and the TGI [53] was over 100 µM. For the same compound, the TGI [54] was over 100 µM, the TGI [55] was 73.2 µM and the TGI [56] was 71.8 µM. It also gave a TGI [57] of over 100 µM.
`Cc1[nH]c2ccccc2c1/C=N/NC(=O)c1cccc(I)c1` showed a TGI [1] of over 100 µM, a TGI [2] of 51.4 µM and a TGI [3] of 30 µM. For the same compound, the TGI [4] was 35.7 µM, the TGI [5] was 57.7 µM and the TGI [6] was 84.5 µM. The TGI [7] was 91.3 µM, the TGI [8] was 93.5 µM and the TGI [9] was 89.8 µM. For the same compound, the TGI [10] was over 100 µM, the TGI [11] was 54.5 µM and the TGI [12] was 39.2 µM. The TGI [13] was 52.9 µM, the TGI [58] was 38.2 µM and the TGI [14] was 66 µM. For the same compound, the TGI [15] was 36.1 µM, the TGI [16] was over 100 µM and the TGI [17] was over 100 µM. It also gave a TGI [18] of 34.5 µM, a TGI [19] of 36.1 µM and a TGI [59] of 60.9 µM. For the same compound, the TGI [20] was 36.3 µM, the TGI [21] was 61.5 µM and the TGI [22] was 53.5 µM. It also gave a TGI [23] of 75.3 µM, a TGI [24] of 31.2 µM and a TGI [25] of 92.5 µM. It also gave a TGI [26] of 56 µM, a TGI [27] of 27 µM and a TGI [28] of 41.9 µM. The TGI [29] was 43.2 µM, the TGI [30] was 52.4 µM and the TGI [31] was 50.4 µM. The TGI [32] was 48.4 µM, the TGI [33] was 61.7 µM and the TGI [34] was 61.6 µM. It also gave a TGI [35] of 78.7 µM, a TGI [36] of 63.2 µM and a TGI [37] of 85.6 µM. For the same compound, the TGI [38] was 70.4 µM, the TGI [39] was 65.6 µM and the TGI [40] was 37.1 µM. The TGI [41] was 54.5 µM, the TGI [42] was 34.6 µM and the TGI [44] was 41 µM. For the same compound, the TGI [45] was 44.5 µM, the TGI [46] was over 100 µM and the TGI [47] was 51.4 µM. The TGI [48] was 41.2 µM, the TGI [49] was 43.3 µM and the TGI [50] was 57 µM. The TGI [51] was 45.5 µM, the TGI [52] was 76.3 µM and the TGI [53] was 87.7 µM. For the same compound, the TGI [54] was 63.3 µM, the TGI [55] was 57.5 µM and the TGI [56] was 63.7 µM. It also gave a TGI [57] of 29.1 µM.
